In turn, `CC(C)CC(C)Nc1ccc(Nc2ccccc2)cc1` (configuration not stated) [4-N-(4-methylpentan-2-yl)-1-N-phenylbenzene-1,4-diamine] came in with a flash point of 204.00 °C. With `Nc1ccc(Nc2ccccc2)cc1` [4-N-phenylbenzene-1,4-diamine] the figure was 193.00 °C; with `N=C(N)c1ccc(OCCCCCOc2ccc(C(=N)N)cc2)cc1` [4-[5-(4-carbamimidoylphenoxy)pentoxy]benzenecarboximidamide], 103.00 °C. With `Nc1ccc(Cc2ccc(N)c(Cl)c2)cc1Cl` [4-[(4-amino-3-chlorophenyl)methyl]-2-chloroaniline] the figure was 113.00 °C; with `CC/C(=C(/CC)c1ccc(O)cc1)c1ccc(O)cc1` [4-[(E)-4-(4-hydroxyphenyl)hex-3-en-3-yl]phenol], 104.00 °C; with `CN(C)c1ccc(Cc2ccc(N(C)C)cc2)cc1` [4-[[4-(dimethylamino)phenyl]methyl]-N,N-dimethylaniline], 211.00 °C. Then `Cc1cc(Cl)ccc1N` [4-chloro-2-methylaniline], with 160.00 °C; and `Cc1cc(O)ccc1Cl` [4-chloro-3-methylphenol], with 110.00 °C. The molecule `Nc1ccc(Cl)cc1` [4-chloroaniline] displayed a flash point of 113.00 °C. Then `C=CC1CC=CCC1` (configuration not stated) [4-ethenylcyclohexene], with 16.00 °C; and `CCN1CCOCC1` [4-ethylmorpholine], with 28.00 °C; and `COc1cc(C=O)ccc1O` [4-hydroxy-3-methoxybenzaldehyde], with 153.00 °C.

In the case of `COc1ccc(O)cc1` [4-methoxyphenol], the flash point was determined as 132.00 °C. Then `CC1COC(=O)O1` (configuration not stated) [4-methyl-1,3-dioxolan-2-one], with 116.00 °C; and `Cc1ccc(N)c([N+](=O)[O-])c1` [4-methyl-2-nitroaniline], with 157.00 °C. With `Cc1ccc(N)cc1[N+](=O)[O-]` [4-methyl-3-nitroaniline] the figure was 157.00 °C; with `Cc1ccc(N)cc1` [4-methylaniline], 87.00 °C; with `Cc1ccc(C#N)cc1` [4-methylbenzonitrile], 85.00 °C. For `CC1CCC(O)CC1` (configuration not stated) [4-methylcyclohexan-1-ol], the flash point came out at 70.00 °C.

Consider `C=C1CC(=O)O1` [4-methylideneoxetan-2-one], for which the flash point amounted to 34.00 °C. With `CC(=O)C=C(C)C` [4-methylpent-3-en-2-one] the figure was 23.00 °C. Turning to `C=CC=C(C)C` [4-methylpenta-1,3-diene], the flash point was -34.00 °C.

The molecule `CC(C)CC(C)O` (configuration not stated) [4-methylpentan-2-ol] showed a flash point of 41.00 °C. With `CC(=O)CC(C)C` [4-methylpentan-2-one] the figure was 23.00 °C. With `CCCCCCCCc1ccc(O)cc1` [4-octylphenol] the figure was 113.00 °C; with `CCc1ccc(C)nc1` [5-ethyl-2-methylpyridine], 68.00 °C.

In turn, `CCC1(c2ccccc2)C(=O)NC(=O)NC1=O` [5-ethyl-5-phenyl-1,3-diazinane-2,4,6-trione] gave a flash point of 174.00 °C. With `CC=C1CC2C=CC1C2` (configuration not stated) [5-ethylidenebicyclo[2.2.1]hept-2-ene] the figure was 26.00 °C; with `Cc1cnc[nH]1` [5-methyl-1H-imidazole], 157.00 °C; with `CC(=O)CCC(C)C` [5-methylhexan-2-one], 36.00 °C. Molecule `C=CCc1ccc2c(c1)OCO2` [5-prop-2-enyl-1,3-benzodioxole] showed a flash point of 98.00 °C. With `C=C1CCC2CC1C2(C)C` (configuration not stated) [6,6-dimethyl-2-methylidenebicyclo[3.1.1]heptane] the figure was 31.00 °C.

Values taken from a flash point compilation (Sun et al. 2020).
